The values below come from ChEMBL document CHEMBL5137105, “Tricyclic Carboxamide Derivatives as PRMT5 Inhibitors for Treating Cancer” (ACS Med Chem Lett, 2022).

Broadly, the IC50 is the point on the concentration scale where inhibition reaches its midpoint.

The assay is described as follows: Antiproliferative activity against human HCT116-MTAP null cells assessed as reduction in cell viability incubated for 6 days by CellTiter-Glo luminescent assay. The settings on record: 144 h. Type of assay: functional, cell-based. (In ATP-based viability assays light output follows the ATP content of the culture.)
Regarding `CC1OCc2c1c(N)nc1ccc(C(=O)N(Cc3ccc(C(F)(F)F)cn3)Cc3ccnc4[nH]ccc34)cc21` (stereo unspecified), the IC50 is 6 nM.

Take `C[C@H](c1ncccn1)N(Cc1ccc(C(F)(F)F)cn1)C(=O)c1ccc2nc(N)c3c(c2c1)CCC3`: the IC50 was determined as 6 nM.

On to `C[C@H](c1ncccn1)N(Cc1ccc(C#N)c(Cl)n1)C(=O)c1ccc2nc(N)c3c(c2c1)COC3`, for which the IC50 was 5 nM.

Take `Cn1cc(N(Cc2ccc(C(F)(F)F)cn2)C(=O)c2cc3c4c(c(N)nc3cc2Cl)COC4)cn1`: the IC50 is 6 nM.

For the compound `Cn1ncc2c(N)nc3cc(F)c(C(=O)N(Cc4ccc(C(F)(F)F)cn4)C4CCC4)cc3c21`, the IC50 came out at 5 nM.

Regarding `Cn1cc(N(Cc2ccc(C(F)(F)F)cn2)C(=O)c2cc3c(cc2F)nc(N)c2cnn(C)c23)cn1`, the IC50 is 5 nM.
